Experiments:
[1] = system: cholesterol absorption; test: Acute in vivo cholesterol absorption model: inhibition of 14C-cholesterol absorption into plasma, intestinally cannulated rats; design: species or system Male Sprague-Dawley rats; conditions: rat, relative to bile vehicle control
Description: Male Sprague-Dawley rats weighing 300-400 g were used. After an overnight fast, rats were anesthetized (Inactin, […] i.p.) for the duration of each study and were fitted with a cannula into the small intestine just below the pyloric valve. For the cannulation of the small intestine, a catheter (Surflo® i.v. catheter (18GX2″), Terumo Medical Corporation; Elkton, Md.) was inserted through the fundus of the stomach, advanced 1 cm beyond the pylorus, and ligated in place. Compounds were mixed in rat bile and delivered by bolus injection (1 mL) via the intestinal catheter into the small intestine.
One hour after the bile doses were delivered, three mL of an emulsion consisting of 2.23 mg/mL L-phosphatidylcholine and 11.8 mg/mL triolein in 19 mM sodium taurocholate (Sigma; St. Louis, Mo.) buffer (pH 6.4) containing 3 mg cholesterol and 1 mCi ^14C-cholesterol (NEN; Boston, Mass.) was delivered to each rat as a bolus via the intestinal cannula. Ninety minutes after the cholesterol emulsion was delivered, the rats were euthanized. Blood was collected and plasma was separated by centrifugation at 2000 rpm for 15 min at 4° C. Triplicate aliquots of plasma were analyzed ^14C radioactivity and inhibition of cholesterol absorption relative to bile vehicle control rats was determined.

[2] = target: T1, Scavenger receptor, class B, type I (SR-BI) (Rattus norvegicus, UniProt P97943); test: Expression cloning of rat intestinal epithelial cDNA library in BW5147 cells, stained with fluorescent compound, FACS; assay type: cell-based; conditions: two clones from two independent cDNA expression libraries, FACS-positive BW5147 cells
T1 construct: expressed in transfected cells; host or cells: mouse cell line BW5147, infected with pMX retrovirus packaged in BOSC23
T1 sequence (P97943 1-509): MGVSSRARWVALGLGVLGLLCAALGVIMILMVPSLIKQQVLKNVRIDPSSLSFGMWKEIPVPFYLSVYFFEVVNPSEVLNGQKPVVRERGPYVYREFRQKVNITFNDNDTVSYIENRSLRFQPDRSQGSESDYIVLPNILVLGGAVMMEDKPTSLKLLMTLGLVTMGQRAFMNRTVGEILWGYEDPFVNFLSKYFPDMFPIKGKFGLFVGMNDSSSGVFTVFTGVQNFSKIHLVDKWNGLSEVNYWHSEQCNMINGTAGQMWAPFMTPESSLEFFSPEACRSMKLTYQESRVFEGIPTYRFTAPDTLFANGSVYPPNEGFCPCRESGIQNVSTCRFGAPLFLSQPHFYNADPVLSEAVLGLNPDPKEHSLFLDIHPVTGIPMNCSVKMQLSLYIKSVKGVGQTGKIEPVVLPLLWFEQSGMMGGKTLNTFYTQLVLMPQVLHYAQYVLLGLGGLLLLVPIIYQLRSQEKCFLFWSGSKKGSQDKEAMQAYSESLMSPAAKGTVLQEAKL
Text: The small intestine was removed from male CRL: CD BR rats. Intestinal epithelial cells were isolated by the method of Weiser (Weiser, M., 1973, JBC 248, 2536-2541) and the mRNA extracted. Poly A mRNA was purified and double stranded cDNA synthesized. Adapter linkers were ligated followed by size selection (>2 Kb) of the cDNA. The selected fraction of cDNA was ligated into the retroviral expression plasmid pMX, subsequently transformed into bacteria and grown on selective agar at a clonal density of −30,000/plate. Each pool of bacterial clones was collected and plasmid DNA prepared.
Individual pools of cDNA library were transformed into the retroviral packaging cell line BOSC23 and the resulting viral particles, containing the cDNA library, were used to infect the mouse cell line BW5147. Following infection BW5147 cells were stained with compound 1C and analyzed by fluorescent activated cell sorting (FACS). Positive staining cells (−01%) were recovered and re-cultured. The process of recovering positive staining cells was repeated after expansion of the cell population in culture and following the second round of FACS analysis individual cells were isolated by limiting dilution.
Individual clonal populations of cells were subjected to PCR using retroviral vector specific oligonucleotide primers designed to flank the multiple cloning site in which the cDNA library was cloned. […]

## O=C(CCCCCNC(=O)c1ccc(-c2c3ccc(=O)cc-3oc3cc(O)ccc23)c(C(=O)O)c1)NCC#Cc1ccc(N2C(=O)[C@H](CC[C@H](O)c3ccc(F)cc3)[C@H]2c2ccc(O[C@@H]3O[C@H](C(=O)O)[C@@H](O)[C@H](O)[C@H]3O)cc2)cc1 [IB]
[1]; dose 56 μg/kg in rat bile via intestinal catheter
  % Inhibition of [14C]-Cholesterol Absorption into Plasma: 79%
[1]; dose 186 μg/kg in rat bile via intestinal catheter
  % Inhibition of [14C]-Cholesterol Absorption into Plasma: 88%

## [1-O-[4-[1-[4-[3-[[3-[2-[(3,5-DIMETHYL-1H-PYRROL-2-YL-.KAPPA.N)METHYLENE]-2H-PYRROL-5-YL-.KAPPA.N]-1-OXOPROPYL]AMINO]-1-PROPYNYL]PHENYL]-3(R)-[3(S)-HYDROXY-3-(4-FLUOROPHENYL)PROPYL]-2-OXO-4(S)-AZETIDINYL]PHENYL]-BETA-D-GLUCURONATO]DIFLUOROBORATE, HYDROGEN [IC]
[1]; dose 30 μg/kg in rat bile via intestinal catheter
  % Inhibition of [14C]-Cholesterol Absorption into Plasma: 58%
[1]; dose 100 μg/kg in rat bile via intestinal catheter
  % Inhibition of [14C]-Cholesterol Absorption into Plasma: 80%
[2]
  cellular receptor identified by expression cloning with the fluorescent compound: identified as the cellular receptor
